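The compound was tested at five concentrations on cells cultured in 96-well plates, with a 48-hour exposure period. GI50 is the concentration that inhibits growth by half.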 Calls of active or inactive are those of the source. No stated cut-off is given here; in the data, active = GI50 up to about 1.1 µM and inactive = higher. Peptide text beside a SMILES is read from it. * marks the point of attachment. Boc = CC(C)(C)OC(=O)*; OBn = c1ccc(CO*)cc1
What was measured:
Experiment in all cases: NCI tumour cell line growth inhibition, 48 h
HCT-15 = test system: HCT-15
OVCAR-8 = test system: OVCAR-8
K562 = test system: K562
U-251 = test system: U-251
HOP-92 = test system: HOP-92
LOX IMVI = test system: LOX IMVI
HT-29 = test system: HT-29
SK-OV-3 = test system: SK-OV-3
SN12C = test system: SN12C
SK-MEL-5 = test system: SK-MEL-5
KM12 = test system: KM12
T47D = test system: T47D
M14 = test system: M14
NCI-H226 = test system: NCI-H226
SW-620 = test system: SW-620
MDA-MB-435 = test system: MDA-MB-435
UACC-257 = test system: UACC-257
SF-268 = test system: SF-268
TK-10 = test system: TK-10
HL-60 = test system: HL-60

Row | SMILES | GI50 (HCT-15) [µM] | GI50 (OVCAR-8) | GI50 (K562) | GI50 (U-251) | GI50 (HOP-92) | GI50 (LOX IMVI) | GI50 (HT-29) | GI50 (SK-OV-3) | GI50 (SN12C) | GI50 (SK-MEL-5) | GI50 (KM12) | GI50 (T47D) | GI50 (M14) | GI50 (NCI-H226) | GI50 (SW-620) | GI50 (MDA-MB-435) | GI50 (UACC-257) | GI50 (SF-268) | GI50 (TK-10) | GI50 (HL-60)
1 | O=C(CCCCCCCCC(=O)N1C(=O)CC(=O)N(c2ccc(Cl)cc2)C1=S)N1C(=O)CC(=O)N(c2ccc(Cl)cc2)C1=S | 35.6 | 63.5 µM (inactive) | 17.5 µM (inactive) | > 100 µM (inactive) | > 100 µM (inactive) | 54.8 µM (inactive) | 73.5 µM (inactive) | 73.3 µM (inactive) | > 100 µM (inactive) | 29.9 µM (inactive) | 27.4 µM (inactive) | 33.3 µM (inactive) | 38.5 µM (inactive) | > 100 µM (inactive) | > 100 µM (inactive) | 58.1 µM (inactive) | > 100 µM (inactive) | > 100 µM (inactive) | > 100 µM (inactive) | –
2 | Nc1n[nH]c2c(C(=O)Nc3ccc(Cl)cc3)c(N)n(N)c(=O)c12 | > 100 | > 100 µM (inactive) | > 100 µM (inactive) | > 100 µM (inactive) | – | > 100 µM (inactive) | > 100 µM (inactive) | > 100 µM (inactive) | > 100 µM (inactive) | > 100 µM (inactive) | > 100 µM (inactive) | > 100 µM (inactive) | > 100 µM (inactive) | > 100 µM (inactive) | > 100 µM (inactive) | > 100 µM (inactive) | > 100 µM (inactive) | > 100 µM (inactive) | > 100 µM (inactive) | > 100 µM (inactive)
3 | N#CCCOc1cccc(C2(N3CCCCC3)CCCCC2)c1 | > 100 | > 100 µM (inactive) | > 100 µM (inactive) | > 100 µM (inactive) | – | > 100 µM (inactive) | > 100 µM (inactive) | > 100 µM (inactive) | > 100 µM (inactive) | > 100 µM (inactive) | > 100 µM (inactive) | > 100 µM (inactive) | > 100 µM (inactive) | > 100 µM (inactive) | > 100 µM (inactive) | > 100 µM (inactive) | > 100 µM (inactive) | > 100 µM (inactive) | > 100 µM (inactive) | > 100 µM (inactive)
4 | BC(=O)NC(CC(C)C)C(=O)NC1c2ccsc2C(=O)C1O.CN(C)C (configuration not stated) | > 100 | > 100 µM (inactive) | > 100 µM (inactive) | > 100 µM (inactive) | – | > 100 µM (inactive) | > 100 µM (inactive) | > 100 µM (inactive) | > 100 µM (inactive) | > 100 µM (inactive) | > 100 µM (inactive) | > 100 µM (inactive) | > 100 µM (inactive) | > 100 µM (inactive) | > 100 µM (inactive) | > 100 µM (inactive) | > 100 µM (inactive) | > 100 µM (inactive) | > 100 µM (inactive) | > 100 µM (inactive)
5 | CC(C)(C)OC(=O)NCC(c1c[nH]c2ccc(Br)cc12)c1c[nH]c2ccc(Br)cc12 | 7.73 | 13.4 µM (inactive) | 15.9 µM (inactive) | 6.43 µM (inactive) | 3.76 µM (inactive) | 7.03 µM (inactive) | 3.34 µM (inactive) | – | 5.13 µM (inactive) | 6.38 µM (inactive) | 4.16 µM (inactive) | 10 µM (inactive) | 3.56 µM (inactive) | 16.6 µM (inactive) | 6.64 µM (inactive) | 11.7 µM (inactive) | 13 µM (inactive) | 8.43 µM (inactive) | 12.6 µM (inactive) | 11.7 µM (inactive)
6 | COCCCNC(=O)C1=C(C)NC(C)=C(C(=O)NCCCOC)C1 | – | > 100 µM (inactive) | 46 µM (inactive) | > 100 µM (inactive) | 89.3 µM (inactive) | > 100 µM (inactive) | > 100 µM (inactive) | > 100 µM (inactive) | > 100 µM (inactive) | > 100 µM (inactive) | > 100 µM (inactive) | > 100 µM (inactive) | > 100 µM (inactive) | > 100 µM (inactive) | > 100 µM (inactive) | > 100 µM (inactive) | > 100 µM (inactive) | > 100 µM (inactive) | > 100 µM (inactive) | > 100 µM (inactive)
7 | CC(NC(=O)C(NC(=O)OC(C)(C)C)C(C)C)C(=O)N1CCCC1C(=O)NCC(=O)NC(C(=O)NCC(=O)OCc1ccccc1)C(C)C (configuration not stated) (Boc-VAPGVG-OBn; configuration not given here) | > 100 | > 100 µM (inactive) | > 100 µM (inactive) | > 100 µM (inactive) | > 100 µM (inactive) | > 100 µM (inactive) | > 100 µM (inactive) | > 100 µM (inactive) | > 100 µM (inactive) | – | – | > 100 µM (inactive) | > 100 µM (inactive) | – | > 100 µM (inactive) | > 100 µM (inactive) | > 100 µM (inactive) | > 100 µM (inactive) | > 100 µM (inactive) | > 100 µM (inactive)
8 | c1csc(-c2cc(-c3cccs3)c(-c3cccs3)s2)c1 | 49.8 | > 100 µM (inactive) | 79.1 µM (inactive) | 75.5 µM (inactive) | 91.8 µM (inactive) | – | 39.3 µM (inactive) | > 100 µM (inactive) | > 100 µM (inactive) | 33.2 µM (inactive) | 46.5 µM (inactive) | 4.69 µM (inactive) | 47 µM (inactive) | > 100 µM (inactive) | > 100 µM (inactive) | 37.8 µM (inactive) | 55.3 µM (inactive) | > 100 µM (inactive) | > 100 µM (inactive) | –
9 | COc1ccc(CCN2C(=O)C(=O)C(C(=O)c3ccccc3)C2c2ccccc2)cc1OC (configuration not stated) | 60.5 | > 100 µM (inactive) | > 100 µM (inactive) | > 100 µM (inactive) | 41.7 µM (inactive) | 86.7 µM (inactive) | > 100 µM (inactive) | > 100 µM (inactive) | 67.8 µM (inactive) | > 100 µM (inactive) | > 100 µM (inactive) | 90.8 µM (inactive) | > 100 µM (inactive) | – | > 100 µM (inactive) | > 100 µM (inactive) | > 100 µM (inactive) | > 100 µM (inactive) | > 100 µM (inactive) | > 100 µM (inactive)
10 | [N-]=[N+]=C1N=CN=C1c1nc[nH]n1 | 63 | 21.4 µM (inactive) | 14.9 µM (inactive) | 27 µM (inactive) | 12.4 µM (inactive) | 12 µM (inactive) | > 100 µM (inactive) | > 100 µM (inactive) | 20.9 µM (inactive) | 57.8 µM (inactive) | 93.5 µM (inactive) | 17.4 µM (inactive) | 40.6 µM (inactive) | > 100 µM (inactive) | 22.1 µM (inactive) | 31.3 µM (inactive) | 57 µM (inactive) | – | 51.2 µM (inactive) | 5.83 µM (inactive)
11 | COc1ccc2c(=O)cc(-c3ccncc3)oc2c1OC | 28.5 | 24.9 µM (inactive) | 38.3 µM (inactive) | 30.1 µM (inactive) | 17.7 µM (inactive) | 21 µM (inactive) | 28.6 µM (inactive) | 41 µM (inactive) | 29.6 µM (inactive) | 17.5 µM (inactive) | 26.4 µM (inactive) | 48.8 µM (inactive) | 19.8 µM (inactive) | – | 31.6 µM (inactive) | 31.6 µM (inactive) | 33 µM (inactive) | 21.8 µM (inactive) | 28.1 µM (inactive) | 19.5 µM (inactive)
12 | OC1CN=C2c3ccccc3C(O)(c3ccc(Cl)cc3)N2C1 (configuration not stated) | – | 77.4 µM (inactive) | 35.6 µM (inactive) | 66.7 µM (inactive) | 22 µM (inactive) | 45.4 µM (inactive) | 32.9 µM (inactive) | 69.5 µM (inactive) | 57.7 µM (inactive) | > 10 µM (inactive) | 52.4 µM (inactive) | > 100 µM (inactive) | 14.8 µM (inactive) | 83.4 µM (inactive) | > 100 µM (inactive) | 65.8 µM (inactive) | – | 32 µM (inactive) | 20.2 µM (inactive) | 44.4 µM (inactive)
13 | CCCN(CCC)C(=S)N/N=C(/C)c1ccccc1O | 3.48 | 3.42 µM (inactive) | 4.06 µM (inactive) | 3.84 µM (inactive) | 15.9 µM (inactive) | 3.46 µM (inactive) | 6.28 µM (inactive) | 10.2 µM (inactive) | 5.82 µM (inactive) | 5.81 µM (inactive) | 4.98 µM (inactive) | 3.61 µM (inactive) | 2.94 µM (inactive) | – | 5.55 µM (inactive) | 8.38 µM (inactive) | 7.71 µM (inactive) | 4.42 µM (inactive) | 6.19 µM (inactive) | 3.96 µM (inactive)
14 | Cc1cc2[n-][n+]3ncc(-c4ccccc4)n3c2cc1[N+](=O)[O-] | > 100 | – | > 100 µM (inactive) | > 100 µM (inactive) | > 100 µM (inactive) | > 100 µM (inactive) | – | > 100 µM (inactive) | > 10 µM (inactive) | > 100 µM (inactive) | > 100 µM (inactive) | > 100 µM (inactive) | – | – | > 100 µM (inactive) | > 100 µM (inactive) | > 100 µM (inactive) | – | > 100 µM (inactive) | > 100 µM (inactive)
15 | CN=C(n1ccnc1)n1ccnc1 | > 100 | > 100 µM (inactive) | > 100 µM (inactive) | > 100 µM (inactive) | – | > 100 µM (inactive) | > 100 µM (inactive) | > 100 µM (inactive) | > 100 µM (inactive) | > 100 µM (inactive) | > 100 µM (inactive) | > 100 µM (inactive) | > 100 µM (inactive) | > 100 µM (inactive) | > 100 µM (inactive) | > 100 µM (inactive) | > 100 µM (inactive) | > 100 µM (inactive) | > 100 µM (inactive) | > 100 µM (inactive)

Source: ChEMBL document CHEMBL1201862, “PubChem BioAssay data set” (2004)
